Test results reported in ChEMBL document CHEMBL3885881, “DrugMatrix”.

Species on record: Rattus norvegicus
Assay: DrugMatrix - Regimen: Daily Repeat
Format: toxicity, organism-based, Sprague-Dawley
Set-up: regimen Daily Repeat, gender Male, age 6-8 weeks
Conditions: in vivo, po, route oral GAVAGE, vehicle 100 % WATER; for ABSOLUTE BASOPHIL / ABSOLUTE EOSINOPHIL / ABSOLUTE LYMPHOCYTE / ABSOLUTE MONOCYTE / ABSOLUTE SEGMENTED NEUTROPHIL / BASOPHIL / EOSINOPHIL / ERYTHROCYTE COUNT / HEMATOCRIT / HEMOGLOBIN / LEUKOCYTE COUNT / LYMPHOCYTE / MEAN CORPUSCULAR HEMOGLOBIN / MEAN CORPUSCULAR HEMOGLOBIN CONCENTRATION / MEAN CORPUSCULAR VOLUME / MONOCYTE / NEUTROPHIL / NUCLEATED RED BLOOD CELLS / PLATELET COUNT: tissue Blood; for ALANINE AMINOTRANSFERASE / ALBUMIN / ALKALINE PHOSPHATASE / ASPARTATE AMINOTRANSFERASE / BLOOD UREA NITROGEN / CARBON DIOXIDE / CHLORIDE / CHOLESTEROL / CREATINE PHOSPHOKINASE / CREATININE / GLUCOSE / LACTATE DEHYDROGENASE / LIPASE / PHOSPHORUS / POTASSIUM / SODIUM / TOTAL BILIRUBIN / TOTAL PROTEIN / URIC ACID: tissue Plasma
[1] = 13 mg/kg, 72 h, dose level Low, time 3 day
[2] = 13 mg/kg, 120 h, dose level Low, time 5 day
[3] = 300 mg/kg, 72 h, dose level High, time 3 day
[4] = 300 mg/kg, 120 h, dose level High, time 5 day

## OC(CCCN1CCCCC1)(c1ccccc1)c1ccccc1 [DIPHENIDOL]
[1]
  ABSOLUTE BASOPHIL: 0 CELLS/uL
  ABSOLUTE EOSINOPHIL: 54.67 CELLS/uL
  ABSOLUTE LYMPHOCYTE: 13934 CELLS/uL
  ABSOLUTE MONOCYTE: 204 CELLS/uL
  ABSOLUTE SEGMENTED NEUTROPHIL: 740.67 CELLS/uL
  BASOPHIL: 0%
  EOSINOPHIL: 0.33%
  ERYTHROCYTE COUNT: 5.67 x10E6/uL
  HEMATOCRIT: 36.33%
  HEMOGLOBIN: 14.43 G/DL
  LEUKOCYTE COUNT: 14.93 x10E3/uL
  LYMPHOCYTE: 93.33%
  MEAN CORPUSCULAR HEMOGLOBIN: 25.47 pg
  MEAN CORPUSCULAR HEMOGLOBIN CONCENTRATION: 39.7 G/DL
  MEAN CORPUSCULAR VOLUME: 64.07 fL
  MONOCYTE: 1.33%
  NEUTROPHIL: 5%
  NUCLEATED RED BLOOD CELLS: 0 /100WBC
  PLATELET COUNT: 1276.67 x10E3/uL
  ALANINE AMINOTRANSFERASE: 58.33 u/L
  ALBUMIN: 4.23 G/DL
  ALKALINE PHOSPHATASE: 408.67 u/L
  ASPARTATE AMINOTRANSFERASE: 99.33 u/L
  BLOOD UREA NITROGEN: 17.33 mg/dL
  CARBON DIOXIDE: 25 mmol/L
  CHLORIDE: 102.33 MEQ/L
  CHOLESTEROL: 72 mg/dL
  CREATINE PHOSPHOKINASE: 574 u/L
  CREATININE: 0.29 mg/dL
  GLUCOSE: 169.33 mg/dL
  LACTATE DEHYDROGENASE: 402.67 u/L
  LIPASE: 9.67 u/L
  PHOSPHORUS: 13.97 mg/dL
  POTASSIUM: 7.15 MEQ/L
  SODIUM: 146.43 MEQ/L
  TOTAL BILIRUBIN: 0.2 mg/dL
  TOTAL PROTEIN: 5.77 G/DL
  URIC ACID: 3.3 mg/dL
[2]
  ABSOLUTE BASOPHIL: 0 CELLS/uL
  ABSOLUTE EOSINOPHIL: 69 CELLS/uL
  ABSOLUTE LYMPHOCYTE: 13769 CELLS/uL
  ABSOLUTE MONOCYTE: 0 CELLS/uL
  ABSOLUTE SEGMENTED NEUTROPHIL: 1595.33 CELLS/uL
  BASOPHIL: 0%
  EOSINOPHIL: 0.33%
  ERYTHROCYTE COUNT: 5.45 x10E6/uL
  HEMATOCRIT: 34.73%
  HEMOGLOBIN: 13.73 G/DL
  LEUKOCYTE COUNT: 15.43 x10E3/uL
  LYMPHOCYTE: 89.67%
  MEAN CORPUSCULAR HEMOGLOBIN: 25.2 pg
  MEAN CORPUSCULAR HEMOGLOBIN CONCENTRATION: 39.53 G/DL
  MEAN CORPUSCULAR VOLUME: 63.8 fL
  MONOCYTE: 0%
  NEUTROPHIL: 10%
  NUCLEATED RED BLOOD CELLS: 0 /100WBC
  PLATELET COUNT: 1177.33 x10E3/uL
  ALANINE AMINOTRANSFERASE: 49 u/L
  ALBUMIN: 4.23 G/DL
  ALKALINE PHOSPHATASE: 358.67 u/L
  ASPARTATE AMINOTRANSFERASE: 78 u/L
  BLOOD UREA NITROGEN: 18.67 mg/dL
  CARBON DIOXIDE: 28 mmol/L
  CHLORIDE: 101.67 MEQ/L
  CHOLESTEROL: 68.67 mg/dL
  CREATINE PHOSPHOKINASE: 194.33 u/L
  CREATININE: 0.17 mg/dL
  GLUCOSE: 148.33 mg/dL
  LACTATE DEHYDROGENASE: 83.67 u/L
  LIPASE: 9 u/L
  PHOSPHORUS: 12.13 mg/dL
  POTASSIUM: 6.32 MEQ/L
  SODIUM: 146.57 MEQ/L
  TOTAL BILIRUBIN: 0.17 mg/dL
  TOTAL PROTEIN: 5.97 G/DL
  URIC ACID: 1.13 mg/dL
[3]
  ABSOLUTE BASOPHIL: 0 CELLS/uL
  ABSOLUTE EOSINOPHIL: 58 CELLS/uL
  ABSOLUTE LYMPHOCYTE: 16577.33 CELLS/uL
  ABSOLUTE MONOCYTE: 58 CELLS/uL
  ABSOLUTE SEGMENTED NEUTROPHIL: 1540 CELLS/uL
  BASOPHIL: 0%
  EOSINOPHIL: 0.33%
  ERYTHROCYTE COUNT: 5.58 x10E6/uL
  HEMATOCRIT: 35.57%
  HEMOGLOBIN: 14.3 G/DL
  LEUKOCYTE COUNT: 18.23 x10E3/uL
  LYMPHOCYTE: 91%
  MEAN CORPUSCULAR HEMOGLOBIN: 25.63 pg
  MEAN CORPUSCULAR HEMOGLOBIN CONCENTRATION: 40.17 G/DL
  MEAN CORPUSCULAR VOLUME: 63.8 fL
  MONOCYTE: 0.33%
  NEUTROPHIL: 8.33%
  NUCLEATED RED BLOOD CELLS: 0 /100WBC
  PLATELET COUNT: 1352.67 x10E3/uL
  ALANINE AMINOTRANSFERASE: 52 u/L
  ALBUMIN: 4.3 G/DL
  ALKALINE PHOSPHATASE: 318.33 u/L
  ASPARTATE AMINOTRANSFERASE: 74 u/L
  BLOOD UREA NITROGEN: 15.67 mg/dL
  CARBON DIOXIDE: 24.67 mmol/L
  CHLORIDE: 103.33 MEQ/L
  CHOLESTEROL: 80.33 mg/dL
  CREATINE PHOSPHOKINASE: 184 u/L
  CREATININE: 0.24 mg/dL
  GLUCOSE: 156.67 mg/dL
  LACTATE DEHYDROGENASE: 139.67 u/L
  LIPASE: 9 u/L
  PHOSPHORUS: 13.97 mg/dL
  POTASSIUM: 7.22 MEQ/L
  SODIUM: 146.87 MEQ/L
  TOTAL BILIRUBIN: 0.13 mg/dL
  TOTAL PROTEIN: 6.27 G/DL
  URIC ACID: 1.77 mg/dL
[4]
  ABSOLUTE BASOPHIL: 0 CELLS/uL
  ABSOLUTE EOSINOPHIL: 44 CELLS/uL
  ABSOLUTE LYMPHOCYTE: 14983.33 CELLS/uL
  ABSOLUTE MONOCYTE: 56.33 CELLS/uL
  ABSOLUTE SEGMENTED NEUTROPHIL: 783 CELLS/uL
  BASOPHIL: 0%
  EOSINOPHIL: 0.33%
  ERYTHROCYTE COUNT: 5.89 x10E6/uL
  HEMATOCRIT: 35.8%
  HEMOGLOBIN: 14.47 G/DL
  LEUKOCYTE COUNT: 15.87 x10E3/uL
  LYMPHOCYTE: 94.33%
  MEAN CORPUSCULAR HEMOGLOBIN: 24.63 pg
  MEAN CORPUSCULAR HEMOGLOBIN CONCENTRATION: 40.43 G/DL
  MEAN CORPUSCULAR VOLUME: 60.97 fL
  MONOCYTE: 0.33%
  NEUTROPHIL: 5%
  NUCLEATED RED BLOOD CELLS: 0.33 /100WBC
  PLATELET COUNT: 1311 x10E3/uL
  ALANINE AMINOTRANSFERASE: 67.67 u/L
  ALBUMIN: 4.47 G/DL
  ALKALINE PHOSPHATASE: 383 u/L
  ASPARTATE AMINOTRANSFERASE: 106.33 u/L
  BLOOD UREA NITROGEN: 14.33 mg/dL
  CARBON DIOXIDE: 23 mmol/L
  CHLORIDE: 101 MEQ/L
  CHOLESTEROL: 53.67 mg/dL
  CREATINE PHOSPHOKINASE: 291 u/L
  CREATININE: 0.27 mg/dL
  GLUCOSE: 161 mg/dL
  LACTATE DEHYDROGENASE: 445 u/L
  LIPASE: 11 u/L
  PHOSPHORUS: 14.9 mg/dL
  POTASSIUM: 6.65 MEQ/L
  SODIUM: 146.5 MEQ/L
  TOTAL BILIRUBIN: 0.1 mg/dL
  TOTAL PROTEIN: 6.2 G/DL
  URIC ACID: 2.83 mg/dL
